Assay [1] concerns spliced isoform sXBP1 in ES-derived differentiated cells. Kind of assay: sXBP1 quantitative PCR, differentiated cells. Format: cell-based, human. Particulars: 20 μM PluriSIn #1 or 100 nm A939572.
In a further assay the test system is hPSC-derived teratomas. Kind of assay: Teratoma formation from pre-treated hPSCs in NOD-SCID IL2Rγ−/− mice. Type of assay: in vivo, mouse. Conditions: for teratoma formation at the side injected with pre-treated cells: cells pre-treated before injection into mice; for Incidence of teratoma formation, undifferentiated cells only: hPSCs pre-treated 48 h with 20 μM. The procedure: Human embryonic stem cell and induced pluripotent stem cell lines were cultured without feeder cells in CELLSTAR® 6-well tissue culture plates (Greiner Bio-One) pre-coated with Matrigel™, using mTeSR1 defined medium. Cells were treated for 24 hours with either 20 μM PluriSIn #1 (isonicotinic acid N′-phenylhydrazide) in 0.2% DMSO or with 0.2% DMSO, followed by medium replacement and a second treatment for another 24 hours. 48 hours after initial exposure to the tested compound, cells were harvested with trypsin-EDTA and resuspended in a 1:1 mTeSR1:Matrigel™ mixture to a total volume of 200 μl. Cells were then injected subcutaneously to the back of NOD-SCID IL2Rγ−/− mice (Jackson Laboratory). Six weeks after injection mice were sacrificed, the formation of tumors was examined, and the resulting teratomas were photographed, dissected and cryopreserved in O.C.T. compound (Sakura Finetek, Torrance, Calif.).
Alternatively, human embryonic stem cells and induced pluripotent stem cells were spontaneously differentiated in culture for a period of 10 days, by growing them on gelatin-coated culture plates with 85% knockout DMEM medium supplemented with 15% knockout serum replacement, 1 mM glutamine, 0.1 mM β-mercaptoethanol, 1% nonessential amino acids, penicillin (50 U/ml) and streptomycin (50 μg/ml), without basic fibroblast growth factor (bFGF). Retinoic acid was added to the medium at a final concentration of 1 μM. 10 days later, the differentiated cells were harvested and plated at a 1:1 ratio with their undifferentiated parental cells in CELLSTAR® 6-well tissue culture plates (Greiner Bio-One) pre-coated with Matrigel™, with mTeSR1 defined medium. Cells were treated for 24 hours with either 20 μM PluriSIn #1 or 0.2% DMSO, followed by medium replacement and a second treatment for another 24 hours. 48 hours after initial exposure to the compound, cells were harvested with trypsin-EDTA and counted using a Countess automated cell counter (Invitrogen). 1 million viable cells from each condition were resuspended in a 1:1 mTeSR1:Matrigel™ mixture to a total volume of 200 μl. Cells were then injected subcutaneously to the back of NOD-SCID IL2Rγ−/− mice. Each mouse was injected with PluriSIn #1-treated cells into one side of its body and control-treated cells into the other side. Six weeks after injection mice were sacrificed, the formation of tumors was examined, and the resulting teratomas were photographed, dissected and cryopreserved in O.C.T. compound.
To evaluate in vivo tumorigenicity, hPSCs were cultured under the abovementioned conditions in the presence or absence of PluriSIn #1, and the cultures were then injected subcutaneously into immuno-compromised NOD-SCID IL2Rγ−/− mice, which have been previously reported to be especially susceptible to human-derived tumors [Quintana et al., Nature 456:593-598 (2008)]. Mice were sacrificed after 4-6 weeks, and teratoma formation was then assessed.
Similarly, CSES2-SO2 and BJ-iPS28 cell lines were injected into immune-compromised mice (2 mice for each cell line), with control cells and treated cells being injected into the two body sides of the same animal.
The effect of PluriSIns was on teratoma formation was then evaluated in a model designed to simulate a clinical setting. Human ES and iPS cells were spontaneously differentiated in culture for a period of 10 days, and the differentiated cells were then harvested and plated together with undifferentiated cells, in a 1:1 mixture of undifferentiated and differentiated cells, as described in the Materials and Methods section. Following a 48 hour exposure to PluriSIn #1, cells were harvested and injected subcutaneously into NOD-SCID IL2Rγ−/− mice, with each mouse being injected with PluriSin #1-treated cells into one side of its body and with control cells into the other side. The same total number of cells was injected into both sides.

The test system of assay [2] is spliced isoform sXBP1 in human ES cells. Kind of assay: sXBP1 quantitative PCR, ES cells. Type of assay: cell-based. Conditions: 20 μM PluriSIn #1 (12 hours) or 100 nm A939572.
In the next assay the test system is embryonic stem cells. Kind of assay: Annexin V-FITC apoptosis detection (FACS). Particulars: for apoptosis of undifferentiated cells: 18 hours, 20 μM PluriSIn #1 or 100 nm A939572. Format: cell-based, human. The method, then: For quantification of apoptosis, an Annexin V-FITC Apoptosis Detection Kit (eBioscience) was used. […] Dissociated cells were suspended at a final concentration of 2-5×10^5 cells/ml, and treated according to the manufacturer's instructions. Analysis was performed using LSR II FACS with FCS Express software.
The finding of gene expression associated with apoptosis is consistent with previous reports that pluripotent cells are prone to apoptosis [Qin et al., Journal of Biological Chemistry 282:5842-5852 (2007); Momcilovic et al., PloS One 5:e13410 (2010)]. However, pluripotent cells have also been reported to be susceptible to other types of cell death, such as oncosis [Tan et al., Stem Cells 27:1792-1801 (2009)] and autophagy [Alexander et al., PNAS 108:15828-15833 (2011)]. An Annexin V-FITC detection assay and immunoblotting for caspase-3 (a hallmark executioner of apoptosis) were therefore used in order to confirm that the massive hPSC death induced by PluriSIn #1 is indeed apoptosis.

In a further assay the target is T1, SCD1 (Homo sapiens, UniProt O00767).
T1 sequence (O00767 1-359): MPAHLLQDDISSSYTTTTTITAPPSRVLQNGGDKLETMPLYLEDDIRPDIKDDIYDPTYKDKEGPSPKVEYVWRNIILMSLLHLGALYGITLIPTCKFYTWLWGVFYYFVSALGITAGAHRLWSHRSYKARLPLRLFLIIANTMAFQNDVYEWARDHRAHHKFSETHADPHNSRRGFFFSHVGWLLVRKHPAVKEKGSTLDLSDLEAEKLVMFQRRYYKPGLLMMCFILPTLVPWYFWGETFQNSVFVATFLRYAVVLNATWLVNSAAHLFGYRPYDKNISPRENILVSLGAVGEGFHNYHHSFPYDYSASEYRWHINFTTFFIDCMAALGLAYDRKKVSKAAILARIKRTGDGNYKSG
Kind of assay: In vitro biochemical screen for SCD1 inhibitors. Particulars: previous studies. From the text: Inhibition of SCD1 has been reported to induce ER stress and UPR in some human cancer cell lines, leading to apoptosis of these cells [Roongta et al., Molecular Cancer Research 9:1551-1561 (2011); Minville-Walz et al., PloS One 5:e14363 (2010); Scaglia et al., PloS One 4:e6812 (2009); Hess et al., PloS One 5:e1394 (2010); Morgan-Lappe et al., Cancer Research 67:4390-4398 (2007); Mason et al., PLoS One 7:e33823 (2012)].

On to `CNC(=O)c1cccc(NC(=O)N2CCC(Oc3ccccc3Cl)CC2)c1` [A939572, 4-(2-chlorophenoxy)-N-(3-(methylcarbamoyl)-phenyl)piperidine-1-carboxamide, reference compound], for which, in assay [1], the “expression of spliced isoform sXBP1, differentiated cells” value is “did not increase expression”. In addition, in the assay with hPSC-derived teratomas, the “teratoma formation at the side injected with pre-treated cells” value was “protective effect against teratoma formation”. For the same molecule, the “increase in expression of spliced isoform sXBP1, ES cells” value in assay [2] is recorded as “approximately 2 fold”. Also, the “apoptosis of undifferentiated cells” value with embryonic stem cells is listed as “enhanced apoptosis”.

In the case of `O=C(NNc1ccccc1)c1ccncc1` [PluriSIn #1, isonicotinic acid N′-phenylhydrazide], the “SCD1 inhibition in an in vitro biochemical screen” value at SCD1 is “possible direct inhibitors of SCD1”. Besides, the “expression of spliced isoform sXBP1, differentiated cells” value in assay [1] is “did not increase”. In addition, the “Incidence of teratoma formation, 1:1 mixture of undifferentiated and differentiated cells” value in the assay on hPSC-derived teratomas (cells pre-treated 48 h with 20 μM, injected subcutaneously) is given as 0/4. The “teratoma formation at the side injected with pre-treated cells” value in the assay on hPSC-derived teratomas is “no teratoma is visible”. Also, the “Incidence of teratoma formation, undifferentiated cells only” value is recorded as 11/11 in the assay with hPSC-derived teratomas (injected subcutaneously) and 0/11 in the assay on hPSC-derived teratomas (injected subcutaneously, listed as PluriSn #1). Also, in the assay with hPSC-derived teratomas (treated H9 ES cells injected), the “mice that developed teratomas, H9 ES cells” value is 0/3. In assay [2], the “increase in expression of spliced isoform sXBP1, ES cells” value was “approximately 3.5 fold”. The “increase in number of apoptotic cells” value with embryonic stem cells (20 μM, 16 hours post-treatment) is on record as “approximately 7 fold”. Besides, in the assay with embryonic stem cells, the “apoptosis of undifferentiated cells” value was “enhanced apoptosis”.

As to `Cc1ccc(NNC(=O)C(O)(c2ccccc2)c2cccs2)cc1` (stereo not drawn) [PluriSIn #6, 2-hydroxy-2-(thiophen-2-yl)-2-phenylacetic acid 4-methyl-N′-phenylhydrazide], the “SCD1 inhibition in an in vitro biochemical screen” value on SCD1 is “possible direct inhibitors of SCD1”.

These data come from patent US20180153830A1, “SELECTIVE INHIBITORS OF UNDIFFERENTIATED CELLS” (Yissum Research Development Company of the Hebrew …, priority 2012, published 2018).
